Assay results taken from the CheMixHub viscosity set.
“And” between values parts separate entries of the source, which are not always exact repeats. Identical values can stand only once. ± gives the uncertainty stated by the source.

Assay: xn = mol fraction of the nth substance listed

CCCc1ccccc1 + C1CCOC1
303.15 K, 101.33 kPa
Settings	viscosity [mPa·s]
x2 = 0.1005	0.732 ± 0.006
x2 = 0.199	0.709 ± 0.006
x2 = 0.3031	0.682 ± 0.006
x2 = 0.4019	0.656 ± 0.006
x2 = 0.4983	0.63 ± 0.006
x2 = 0.6024	0.596 ± 0.005
x2 = 0.7022	0.561 ± 0.005
x2 = 0.8014	0.525 ± 0.005
x2 = 0.8964	0.485 ± 0.005

CC1COC(=O)O1 (configuration not stated) + C1COCCO1
303.15 K, 101.3 kPa
Settings	viscosity [mPa·s]
x1 = 0.1007	1.1 ± 0.018
x1 = 0.2012	1.184 ± 0.02
x1 = 0.3015	1.273 ± 0.021
x1 = 0.4017	1.369 ± 0.023
x1 = 0.5017	1.472 ± 0.024
x1 = 0.6015	1.582 ± 0.026
x1 = 0.7018	1.706 ± 0.028
x1 = 0.8014	1.844 ± 0.03
x1 = 0.9008	1.992 ± 0.032

CCCCn1cc[n+](C)c1.O=S(=O)([O-])C(F)(F)F + CCCCO
100 kPa
Settings	viscosity [mPa·s]
298.15 K, x1 = 0.2147	6.17 ± 1.2
298.15 K, x1 = 0.2908	8.85 ± 1.8
298.15 K, x1 = 0.9078	62.73 ± 13
303.15 K, x1 = 0.2147	5.08 ± 1
303.15 K, x1 = 0.2908	6.92 ± 1.4
303.15 K, x1 = 0.9078	50.78 ± 10
308.15 K, x1 = 0.2908	6.03 ± 1.2
313.15 K, x1 = 0.4008	9.48 ± 1.9
318.15 K, x1 = 0.4008	7.86 ± 1.6
323.15 K, x1 = 0.4008	7.16 ± 1.4

C1CCOC1 + CCOC(C)=O
101.32 kPa
Settings	viscosity [mPa·s]
303.15 K, x2 = 0.0431	0.443 ± 0.012
303.15 K, x2 = 0.0837	0.437 ± 0.012
303.15 K, x2 = 0.128	0.434 ± 0.012
303.15 K, x2 = 0.1718	0.431 ± 0.012
303.15 K, x2 = 0.2625	0.425 ± 0.011
303.15 K, x2 = 0.3504	0.421 ± 0.011
303.15 K, x2 = 0.4521	0.416 ± 0.011
303.15 K, x2 = 0.6544	0.41 ± 0.011
303.15 K, x2 = 0.8229	0.407 ± 0.011
303.15 K, x2 = 0.8817	0.407 ± 0.011
303.15 K, x2 = 0.9396	0.406 ± 0.011
313.15 K, x2 = 0.2044	0.384 ± 0.01
313.15 K, x2 = 0.4059	0.375 ± 0.01
313.15 K, x2 = 0.5072	0.373 ± 0.01
313.15 K, x2 = 0.6002	0.37 ± 0.01
313.15 K, x2 = 0.7996	0.369 ± 0.01

C1CCOC1 + c1ccccc1
303.15 K, 101.33 kPa
Settings	viscosity [mPa·s]
x1 = 0.0997	0.547 ± 0.005
x1 = 0.1996	0.536 ± 0.005
x1 = 0.3017	0.524 ± 0.005
x1 = 0.3993	0.514 ± 0.005
x1 = 0.5018	0.504 ± 0.005
x1 = 0.6038	0.495 ± 0.005
x1 = 0.7011	0.484 ± 0.005
x1 = 0.8026	0.471 ± 0.004
x1 = 0.8977	0.457 ± 0.004

COc1ccccc1 + CCCCCCCCCCCCCCCC
viscosity [mPa·s], 101.3 kPa
Settings	x1 = 0.1745	x1 = 0.2566	x1 = 0.3849	x1 = 0.4725	x1 = 0.5679	x1 = 0.6889	x1 = 0.8311	x1 = 0.944
293.15 K	2.794 ± 0.34	2.566 ± 0.31	2.193 ± 0.26	1.975 ± 0.24	1.773 ± 0.21	1.51 ± 0.18	1.279 ± 0.15	1.131 ± 0.14
303.15 K	2.261 ± 0.27	2.079 ± 0.25	1.806 ± 0.22	1.64 ± 0.2	1.478 ± 0.18	1.286 ± 0.15	1.084 ± 0.13	0.97 ± 0.12
313.15 K	1.866 ± 0.23	1.73 ± 0.21	1.518 ± 0.18	1.387 ± 0.17	1.258 ± 0.15	1.092 ± 0.13	0.942 ± 0.11	0.845 ± 0.1
323.15 K	1.571 ± 0.19	1.436 ± 0.17	1.296 ± 0.16	1.192 ± 0.14	1.088 ± 0.13	0.964 ± 0.12	0.836 ± 0.1	0.747 ± 0.09

C1CCOC1 + CCCCCC
Settings	viscosity [mPa·s]
293.15 K, 101 kPa, x1 = 0.1171	0.3234 ± 0.013
293.15 K, 101 kPa, x1 = 0.23	0.3356 ± 0.013
293.15 K, 101 kPa, x1 = 0.3386	0.349 ± 0.014
293.15 K, 101 kPa, x1 = 0.4434	0.36 ± 0.014
293.15 K, 101 kPa, x1 = 0.5444	0.3797 ± 0.015
293.15 K, 101 kPa, x1 = 0.6418	0.4007 ± 0.015
293.15 K, 101 kPa, x1 = 0.736	0.4207 ± 0.016
293.15 K, 101 kPa, x1 = 0.8269	0.442 ± 0.016
293.15 K, 101 kPa, x1 = 0.9149	0.465 ± 0.017
298 K, 101 kPa, x2 = 0.0984	0.431 ± 0.015
298 K, 101 kPa, x2 = 0.1946	0.407 ± 0.015
298 K, 101 kPa, x2 = 0.2979	0.387 ± 0.014
298 K, 101 kPa, x2 = 0.3518	0.374 ± 0.014
298 K, 101 kPa, x2 = 0.4012	0.365 ± 0.014
298 K, 101 kPa, x2 = 0.4477	0.357 ± 0.014
298 K, 101 kPa, x2 = 0.4775	0.352 ± 0.014
298 K, 101 kPa, x2 = 0.5496	0.342 ± 0.013
298 K, 101 kPa, x2 = 0.6159	0.333 ± 0.013
298 K, 101 kPa, x2 = 0.6436	0.33 ± 0.013
298 K, 101 kPa, x2 = 0.7063	0.323 ± 0.013
298 K, 101 kPa, x2 = 0.7549	0.318 ± 0.013
298 K, 101 kPa, x2 = 0.7901	0.314 ± 0.013
298 K, 101 kPa, x2 = 0.9039	0.303 ± 0.013
298.15 K, 101 kPa, x1 = 0.1171	0.3025 ± 0.013
298.15 K, 101 kPa, x1 = 0.23	0.3142 ± 0.013
298.15 K, 101 kPa, x1 = 0.3386	0.3258 ± 0.013
298.15 K, 101 kPa, x1 = 0.4434	0.3381 ± 0.014
298.15 K, 101 kPa, x1 = 0.5444	0.357 ± 0.014
298.15 K, 101 kPa, x1 = 0.6418	0.3736 ± 0.015
298.15 K, 101 kPa, x1 = 0.736	0.3943 ± 0.015
298.15 K, 101 kPa, x1 = 0.8269	0.415 ± 0.016
298.15 K, 101 kPa, x1 = 0.9149	0.4365 ± 0.016
303.15 K, 101.33 kPa, x1 = 0.0971	0.285 ± 0.003
303.15 K, 101.33 kPa, x1 = 0.1966	0.295 ± 0.003
303.15 K, 101.33 kPa, x1 = 0.3001	0.307 ± 0.003
303.15 K, 101.33 kPa, x1 = 0.4	0.32 ± 0.003
303.15 K, 101.33 kPa, x1 = 0.5034	0.334 ± 0.003
303.15 K, 101.33 kPa, x1 = 0.5974	0.349 ± 0.004
303.15 K, 101.33 kPa, x1 = 0.7066	0.369 ± 0.004
303.15 K, 101.33 kPa, x1 = 0.7889	0.386 ± 0.004
303.15 K, 101.33 kPa, x1 = 0.8992	0.41 ± 0.004

c1ccc2ccccc2c1 + CCCCO
viscosity
Settings	303.15 K	308.15 K	313.15 K	318.15 K	323.15 K
101 kPa, x1 = 0.07958	2.076 ± 0.053 mPa·s	1.848 ± 0.047 mPa·s	1.633 ± 0.042 mPa·s	1.461 ± 0.037 mPa·s	1.312 ± 0.033 mPa·s
101 kPa, x1 = 0.1174	–	1.796 ± 0.046 mPa·s	1.601 ± 0.041 mPa·s	1.427 ± 0.036 mPa·s	1.28 ± 0.032 mPa·s
101.33 kPa, x1 = 0.06489	–	–	1.67 ± 0.044 mPa·s	–	1.33 ± 0.035 mPa·s
101.33 kPa, x1 = 0.07958	2.076 ± 0.015 mPa·s	1.848 ± 0.013 mPa·s	1.633 ± 0.011 mPa·s and 1.633 ± 0.043 mPa·s	1.461 ± 0.01 mPa·s	1.312 ± 0.0092 mPa·s and 1.312 ± 0.035 mPa·s
101.33 kPa, x1 = 0.09537	–	–	1.624 ± 0.043 mPa·s	–	1.3 ± 0.035 mPa·s
101.33 kPa, x1 = 0.1174	–	–	1.601 ± 0.042 mPa·s	–	1.28 ± 0.034 mPa·s
101.33 kPa, x1 = 0.12	–	1.796 ± 0.013 mPa·s	1.601 ± 0.011 mPa·s	1.427 ± 0.01 mPa·s	1.28 ± 0.009 mPa·s
101.33 kPa, x1 = 0.1436	–	–	1.567 ± 0.041 mPa·s	–	1.26 ± 0.034 mPa·s

C1CCOC1 + CCCCO
101 kPa
Settings	viscosity [mPa·s]
298.15 K, x1 = 0.0512	2.141 ± 0.044
298.15 K, x1 = 0.102	1.844 ± 0.038
298.15 K, x1 = 0.1406	1.658 ± 0.034
298.15 K, x1 = 0.183	1.504 ± 0.031
298.15 K, x1 = 0.3126	1.154 ± 0.024
298.15 K, x1 = 0.4002	0.9777 ± 0.02
298.15 K, x1 = 0.4443	0.9072 ± 0.019
298.15 K, x1 = 0.5	0.8514 ± 0.022
298.15 K, x1 = 0.5121	0.8099 ± 0.017
298.15 K, x1 = 0.5924	0.7195 ± 0.015
298.15 K, x1 = 0.6795	0.6388 ± 0.013
298.15 K, x1 = 0.7633	0.5776 ± 0.012
298.15 K, x1 = 0.8268	0.5346 ± 0.011
298.15 K, x1 = 0.8944	0.5033 ± 0.011
298.15 K, x1 = 0.9677	0.4714 ± 0.01
313.15 K, x1 = 0.0576	1.529 ± 0.032
313.15 K, x1 = 0.1184	1.324 ± 0.028
313.15 K, x1 = 0.173	1.166 ± 0.024
313.15 K, x1 = 0.2282	1.035 ± 0.022
313.15 K, x1 = 0.3549	0.831 ± 0.017
313.15 K, x1 = 0.4542	0.7105 ± 0.015
313.15 K, x1 = 0.5481	0.6237 ± 0.013
313.15 K, x1 = 0.6462	0.5526 ± 0.012
313.15 K, x1 = 0.7386	0.4994 ± 0.01
313.15 K, x1 = 0.8296	0.4574 ± 0.0097
313.15 K, x1 = 0.8747	0.439 ± 0.0093
313.15 K, x1 = 0.9154	0.4256 ± 0.009
313.15 K, x1 = 0.9584	0.4129 ± 0.0088

COc1ccccc1 + CCCO
viscosity [mPa·s], 101 kPa
Settings	x1 = 0.1207	x1 = 0.236	x1 = 0.3462	x1 = 0.4516	x1 = 0.5526	x1 = 0.6495	x1 = 0.7424	x1 = 0.8317	x1 = 0.9175
303 K	1.448 ± 0.018	1.219 ± 0.015	1.138 ± 0.014	1.075 ± 0.013	0.9286 ± 0.011	0.8908 ± 0.011	0.8219 ± 0.0099	0.8308 ± 0.01	0.8695 ± 0.011
313 K	1.176 ± 0.015	1.046 ± 0.013	0.9616 ± 0.012	0.8924 ± 0.011	0.7921 ± 0.0098	0.7847 ± 0.0097	0.7639 ± 0.0093	0.7523 ± 0.0092	0.7392 ± 0.0092
323 K	0.9186 ± 0.012	0.8788 ± 0.011	0.759 ± 0.01	0.7338 ± 0.0094	0.6514 ± 0.0082	0.6115 ± 0.008	0.6084 ± 0.008	0.5967 ± 0.0078	0.598 ± 0.008
